The values below come from PMC6598400 (Frontiers in Immunology, 2019).

In data set [1] the test system is IL-8 production in U937 cells infected with influenza A virus A/PuertoRico/8/1934. In words: IL-8 production in influenza-infected U937 cells (AlphaLISA). The format is cell-based, human. To be noted: read-out: EC50 IL-8.
Data set [2] deals with IP-10 production in U937 cells infected with influenza A virus A/PuertoRico/8/1934. The experiment in a line: cells. The format is cell-based.
In data set [3] the test system is MCP-1 production in U937 cells infected with influenza A virus A/PuertoRico/8/1934. The experiment in a line: MCP-1 production in influenza-infected U937 cells (AlphaLISA). Format: cell-based, human. The conditions noted are these: read-out: EC50 MCP-1.
The next data set in a line: in vitro. To be noted: human.
The subject of data set [4] is influenza A virus (A/PR/8/34). The experiment in a line: Mouse lethal influenza model: survival and body weight. Format: in vivo, BALB/c mice. To be noted: for Body weight loss: started 2 h after infection; for Survival rate: started 2 h after infection with 500 TCID50, monitored to day 20.
For data set [5], the system named is influenza A virus (A/PR/8/34). In words: Inflammatory cell infiltration in lungs/BALF of infected mice (histology, flow cytometry). The format is in vivo, BALB/c mice. The conditions noted are these: 15 mg/kg oral from day 3. As for the experimental part: BALF samples were washed with FACS buffer (10% BSA in PBS). Red blood cells were lysed using ammonium chloride and […] were seeded into a 96-well U-bottom plate. Cells were pre-incubated with anti-FcgRIII/II (Fc block) in FACS buffer before a 30-min incubation with the following fluorochrome-labeled antibodies (Biolegend): PE-Cy7-conjugated Ly6C (clone HK1.4, dilution 1:200), PE-conjugated CD11b (clone M1/70, dilution 1:200), APC-conjugated Ly6G (clone 1A8, dilution 1:200), and FITC-conjugated CD11c (clone N418, dilution 1:100). Cells were washed with phosphate-buffered saline twice and counterstained with 7AAD (Biolegend) to differentiate apoptotic and dead cells and then analyzed using a LSR Fortessa (Becton Dickinson).
Whole lungs were perfused with 10% neutral buffered formaldehyde in situ. Tissues were then fixed overnight in 10% neutral buffered formaldehyde, embedded in paraffin, and sectioned. Lung specimens were stained with hematoxylin and eosin and then subjected to gross and microscopic pathologic analysis.
Mice were infected as described in Figure 2. […] (A) Hematoxylin & eosin-stained mouse lung sections (scale bar 200 μm) harvested at day 7 post-infection. (B) BALFs were collected from placebo and ponatinib-treated mice (n = 3 per group at each time point) starting day 3 post-infection to monitor total cell counts (mean ± SEM) on days 5 and 7 post-infection. The data are representative of at least three independent experiments.*p < 0.05; **p < 0.01.

Data set [6] relates to pro-inflammatory cytokines in BALF. Also on record: species or system BALB/c mice. To be noted: mouse, in vivo.
For data set [7], the system named is influenza A virus (A/PR/8/34). In words: Viral titers in BALF of infected mice (TCID50 assay using MDCK cells). The format is in vivo, BALB/c mice.
The test system of data set [8] is PR8 strain of influenza virus. The experiment in a line: In vitro antiviral assays in U937, A549 cells and murine PCLS. The format is cell-based.
The test system of data set [9] is MCP-1, KC, IP-10 and IL-6 production in PCLS infected with influenza. The experiment in a line: Cytokine production in influenza-infected murine precision-cut lung slices (PCLS). Format: cell-based, mouse.
The subject of a further data set is phospho-p38. Format: cell-based, human.
The test system of another data set is IFN-α. The experiment in a line: IFN-α levels in influenza virus-infected U937 cells. The format is cell-based, human.
For data set [10] the following is noted: cited from earlier work.
[11] abbreviates: U937 cells, PR8 MOI = 0.1, 48 h.
Setting [12] is: Homo sapiens, U-937, PR8 MOI = 0.1, 48 h.

pEC50: −log10 of the molar value. Read-outs that look alike come from different tables or passages of the source.

Take `Nc1cccc(-c2cc3c(Oc4cccc(O)c4)ncnc3[nH]2)c1` [TWS119]: the pEC50 in data set [1] (setting [11]) was 5.05; in data set [2] (PR8 MOI = 0.1, 48 h), 5.07; in data set [3] (setting [11]), 5.10. This compound also showed a CC50 with U937 cells of 5.4 µM.
The like results for `CC(C)(C)n1nc(-c2ccc(Cl)cc2)c2c(N)ncnc21` [PP2] were, in that order, less than 4.00, 5.48, 4.98 and 40.3 µM.
Regarding `Cc1ccc2nc(NCCN)c3ncc(C)n3c2c1` [BMS-345541], the pEC50 is 4.93 in data set [1] (Homo sapiens, U-937, 48 h); 5.34 in [2] (setting [12]); 5.44 in data set [3] (Homo sapiens, U-937, 48 h). This compound also yielded a CC50 in the data set “in vitro” of 3.9 µM.
The like results for `Cc1cn(-c2cc(NC(=O)c3ccc(C)c(Nc4nccc(-c5cccnc5)n4)c3)cc(C(F)(F)F)c2)cn1` [Nilotinib] were, in that order, 6.40, 5.96, 5.82 and 5.4 µM.
As for `Cc1ccc(C(=O)Nc2ccc(CN3CCN(C)CC3)c(C(F)(F)F)c2)cc1C#Cc1cnc2cccnn12` [Ponatinib], in [1] (Homo sapiens, U-937, 48 h), the pEC50 was 6.52. For the same compound, the pEC50 in [3] (Homo sapiens, U-937, 48 h) is 6.40. Further, in data set [4] (5 mg/kg/d oral), the Body weight loss result is recorded as “improvement in body weight loss decreased significantly compared to the middle dose group” and the Survival rate came out at 20%. The “Body weight loss, delayed administration” value in [4] (15 mg/kg oral, started on days 1, 2, 3 or 4 post-infection until day 6) is given as “slowed down significantly”. In [4] (15 mg/kg oral, started on days 3 and 4 post-infection until day 6), the “Survival rate, delayed administration” value was “higher survival rates than those treated starting on days 1 and 2”. This compound also registered a Survival rate in data set [4] (15 mg/kg/d oral) of 50%. In addition, the Body weight loss entry in [4] (15 mg/kg/d oral, days 3 to 5) is recorded as “least decline in body weight”. In data set [4] (25 mg/kg/d oral), the Body weight loss entry was “improvement of body weight loss was not observed at all” and the Survival rate is 30%. Moreover, the “Inflammatory infiltrates in the lungs (histology)” value in data set [5] (day 7 post-infection, vs placebo) is given as “fewer inflammatory infiltrates”. In data set [5] (days 5 and 7 post-infection), the “Infiltration of neutrophils in BALF” value is listed as “greatly reduced” and the “Monocyte infiltration in BALF” value is on record as “not affected”. In data set [6], the “Concentrations of IL-6, IL-10, MCP-1, Eotaxin, IL-12 (p40) and MIP-1β in BALF” value is on record as “not affected”; the “Expression levels of cytokines and chemokines in BALF (of 17 increased by infection)” value was 14 cytokines and chemokines were attenuated; the “IFN-α levels in BALF vs placebo” value is “higher on day 3 and lower on day 5 post-infection”; the “Inhibition of cytokines in BALF except IL-6 and CCL-5, late phase” value is recorded as “minor”. Moreover, in data set [6], the “Inhibition of cytokines in BALF, early phase” value was “no cytokines were inhibited”; the “Levels of Eotaxin, G-CSF, MCP-1, IL-10, TNF-α and IP-10 in BALF” value is “elevated”; the “Levels of type I IFNs in BALF and serum” value is recorded as “reduce the levels of type I IFNs”; the “Production of cytokines and chemokines in BALF” value was 8 cytokines and chemokines was reduced. The “Viral titers in BALF vs placebo” value in data set [7] (15 mg/kg oral from day 0 (simultaneously with infection)) is “significantly higher at day 3 and slightly higher at day 7”. Further, in data set [7] (15 mg/kg oral from day 3, days 5 and 7 post-infection), the “Virus titers in BALF vs placebo” value is “no difference”. In addition, in data set [8], the “Replication of PR8 influenza virus in vitro” value is recorded as “did not inhibit the replication”. In addition, the “MCP-1, KC, IP-10 and IL-6 productions in infected PCLS” value in data set [9] is “dose-dependently”. The “Phosphorylation of p38” value with phospho-p38 is on record as “downregulated”. Further, in the data set with IFN-α, the “Levels of IFN-α” value is reported as “downregulate”. In data set [10] (clinical trials), the “Median time to first onset of pancreatitis” value was 14 days. In addition, in [10] (patients, long-term treatment), the “Median time to initial onset of arterial occlusive events” value is 13.4 months.
On to `CNC(=O)c1cc(Oc2ccc(NC(=O)Nc3ccc(Cl)c(C(F)(F)F)c3)cc2)ccn1` [Sorafenib], for which the pEC50 is 6.15 in data set [1] (Homo sapiens, U-937, 48 h); 5.43 in data set [2] (setting [12]); 5.24 in [3] (Homo sapiens, U-937, 48 h). In addition, the CC50 in the data set “in vitro” was 20.7 µM.
